Reference: PubChem BioAssay AID602339 (The Scripps Research Institute Molecular Screening Center, 2012)
Active and inactive are the calls of the source. No rule for the calls is given here.

How the values were obtained:
Test in all cases: off-target hydrolase engagement by SILAC proteomics – cell-based, ABPP-SILAC, LC-MS, selectivity assay for DAGLb inhibitor project, late-stage follow-up (AID 602339)
Prepl = details: mouse cells, hits give low values
Ddhd1 = details: mouse cells, hits give low values
Htra2 = details: mouse cells, hits give low values
Lipe = details: mouse cells, hits give low values
Parl = details: mouse cells, hits give low values
[1] = biological target: Acyl-protein thioesterase 1 (Mus musculus) (UniProt P97823); details: mouse cells, Lypla1, hits give low values
Dpp7 = details: mouse cells, hits give low values
Ctsa = details: mouse cells, hits give low values
Dpp9 = details: mouse cells, hits give low values
Lonp1 = details: mouse cells, hits give low values
Fam108b = details: mouse cells, hits give low values
[2] = biological target: Prolyl endopeptidase (Mus musculus) (UniProt Q9QUR6); details: mouse cells, Prep, hits give low values
[3] = biological target: Monoacylglycerol lipase ABHD6 (Mus musculus) (UniProt Q8R2Y0); details: mouse cells, hits give low values
Acot2 = details: mouse cells, hits give low values
[4] = biological target: Palmitoyl-protein thioesterase ABHD10, mitochondrial (Mus musculus) (UniProt Q6PE15); details: mouse cells, hits give low values
Bat5 = details: mouse cells, hits give low values
Esd = details: mouse cells, hits give low values
Pnpla7 = details: mouse cells, hits give low values
Plat = details: mouse cells, hits give low values
D230012E17Rik = details: mouse cells, hits give low values
Qrsl1 = details: mouse cells, hits give low values
Ppt2 = details: mouse cells, hits give low values
Serhl = details: mouse cells, hits give low values
Tpp2 = details: mouse cells, hits give low values
Abhd12 = details: mouse cells, hits give low values
Kiaa1363 = details: mouse cells, hits give low values
Pnpla8 = details: mouse cells, hits give low values
Faah = details: mouse cells, hits give low values
Apeh = details: mouse cells, hits give low values
Pafah1b3 = details: mouse cells, hits give low values
Fam108c = details: mouse cells, hits give low values
Fasn = details: mouse cells, hits give low values
Lypla3 = details: mouse cells, hits give low values
Lyplal1 = details: mouse cells, hits give low values
Ache = details: mouse cells, hits give low values
Pme1 = details: mouse cells, hits give low values
[5] = biological target: Platelet-activating factor acetylhydrolase 2, cytoplasmic (Mus musculus) (UniProt Q8VDG7); details: mouse cells, Pafah2, hits give low values
Lypla2 = details: mouse cells, hits give low values
Pnpla6 = details: mouse cells, hits give low values
Scpep1 = details: mouse cells, hits give low values
Abhd4 = Abhd4 (UniProt Q8VD66); details: mouse cells, hits give low values
Pafah1b2 = details: mouse cells, hits give low values
Lactb = details: mouse cells, hits give low values
Abhd11 = details: mouse cells, hits give low values
[6] = biological target: Diacylglycerol lipase-beta (Mus musculus) (UniProt Q91WC9); details: mouse cells, Daglb, hits give low values
Iah1 = details: mouse cells, hits give low values

Monoacylglycerol lipase ABHD6 (Mus musculus), sequence (Q8R2Y0 whole entry, looked up): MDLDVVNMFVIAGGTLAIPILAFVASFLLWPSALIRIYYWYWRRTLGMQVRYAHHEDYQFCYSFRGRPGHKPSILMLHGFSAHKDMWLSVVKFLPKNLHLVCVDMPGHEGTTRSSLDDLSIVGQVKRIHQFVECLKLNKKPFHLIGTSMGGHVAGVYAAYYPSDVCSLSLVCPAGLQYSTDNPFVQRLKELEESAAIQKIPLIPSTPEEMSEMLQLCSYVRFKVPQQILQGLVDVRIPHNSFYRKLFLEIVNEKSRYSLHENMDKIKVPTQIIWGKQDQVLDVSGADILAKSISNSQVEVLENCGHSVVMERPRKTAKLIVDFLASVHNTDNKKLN
Palmitoyl-protein thioesterase ABHD10, mitochondrial (Mus musculus), sequence (Q6PE15 whole entry, looked up): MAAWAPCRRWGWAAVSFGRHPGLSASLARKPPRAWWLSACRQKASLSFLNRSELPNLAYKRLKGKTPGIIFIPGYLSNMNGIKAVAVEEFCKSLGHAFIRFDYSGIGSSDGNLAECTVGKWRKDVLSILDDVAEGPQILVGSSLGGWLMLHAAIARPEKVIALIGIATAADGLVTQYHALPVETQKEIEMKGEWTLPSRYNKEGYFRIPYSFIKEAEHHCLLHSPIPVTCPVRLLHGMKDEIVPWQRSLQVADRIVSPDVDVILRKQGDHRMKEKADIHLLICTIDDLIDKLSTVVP
Abhd4, sequence (Q8VD66 whole entry, looked up): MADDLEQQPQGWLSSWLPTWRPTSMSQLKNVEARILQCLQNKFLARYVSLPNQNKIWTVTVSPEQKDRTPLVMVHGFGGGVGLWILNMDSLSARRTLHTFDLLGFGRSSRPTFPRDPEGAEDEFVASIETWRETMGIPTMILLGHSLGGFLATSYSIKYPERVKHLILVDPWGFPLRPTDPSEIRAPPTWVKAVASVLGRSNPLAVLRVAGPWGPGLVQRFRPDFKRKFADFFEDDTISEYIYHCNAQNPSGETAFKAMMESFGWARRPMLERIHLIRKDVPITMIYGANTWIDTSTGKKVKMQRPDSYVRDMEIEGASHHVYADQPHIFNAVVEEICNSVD
Platelet-activating factor acetylhydrolase 2, cytoplasmic (Mus musculus), sequence (Q8VDG7 whole entry, looked up): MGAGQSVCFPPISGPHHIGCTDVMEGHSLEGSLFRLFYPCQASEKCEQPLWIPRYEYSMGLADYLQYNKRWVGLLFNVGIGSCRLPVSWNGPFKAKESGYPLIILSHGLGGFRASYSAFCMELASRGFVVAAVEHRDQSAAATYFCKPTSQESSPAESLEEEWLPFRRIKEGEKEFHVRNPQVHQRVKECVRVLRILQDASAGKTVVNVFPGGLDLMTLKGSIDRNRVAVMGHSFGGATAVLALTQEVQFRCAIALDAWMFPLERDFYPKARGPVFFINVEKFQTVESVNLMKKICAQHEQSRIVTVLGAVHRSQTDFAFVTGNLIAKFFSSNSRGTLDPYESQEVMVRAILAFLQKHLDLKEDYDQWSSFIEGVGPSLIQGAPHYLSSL
Acyl-protein thioesterase 1 (Mus musculus), sequence (P97823 whole entry, looked up): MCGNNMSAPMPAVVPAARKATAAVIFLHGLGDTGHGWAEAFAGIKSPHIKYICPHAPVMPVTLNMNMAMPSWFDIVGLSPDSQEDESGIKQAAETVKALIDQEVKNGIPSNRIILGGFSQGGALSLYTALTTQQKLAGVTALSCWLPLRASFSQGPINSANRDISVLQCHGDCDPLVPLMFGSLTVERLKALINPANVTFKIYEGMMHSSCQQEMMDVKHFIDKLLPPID
Prolyl endopeptidase (Mus musculus), sequence (Q9QUR6 whole entry, looked up): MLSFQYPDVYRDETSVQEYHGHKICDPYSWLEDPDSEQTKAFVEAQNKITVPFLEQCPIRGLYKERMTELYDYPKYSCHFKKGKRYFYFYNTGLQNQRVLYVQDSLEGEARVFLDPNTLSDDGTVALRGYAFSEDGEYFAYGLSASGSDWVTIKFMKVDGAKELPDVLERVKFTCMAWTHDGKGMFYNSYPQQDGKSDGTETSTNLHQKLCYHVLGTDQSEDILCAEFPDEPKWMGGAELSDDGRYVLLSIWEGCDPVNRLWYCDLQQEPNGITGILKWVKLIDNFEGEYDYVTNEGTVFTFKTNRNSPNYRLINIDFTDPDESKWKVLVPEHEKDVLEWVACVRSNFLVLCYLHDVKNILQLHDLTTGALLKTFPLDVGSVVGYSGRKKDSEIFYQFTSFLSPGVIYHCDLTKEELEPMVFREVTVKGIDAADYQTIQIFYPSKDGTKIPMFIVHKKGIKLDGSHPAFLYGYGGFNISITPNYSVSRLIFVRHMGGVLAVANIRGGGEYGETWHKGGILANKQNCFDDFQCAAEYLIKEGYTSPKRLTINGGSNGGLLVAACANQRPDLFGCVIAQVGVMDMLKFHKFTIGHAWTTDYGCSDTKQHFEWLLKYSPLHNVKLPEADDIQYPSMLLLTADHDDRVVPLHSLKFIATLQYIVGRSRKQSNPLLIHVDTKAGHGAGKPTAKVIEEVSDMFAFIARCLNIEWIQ
Diacylglycerol lipase-beta (Mus musculus), sequence (Q91WC9 whole entry, looked up): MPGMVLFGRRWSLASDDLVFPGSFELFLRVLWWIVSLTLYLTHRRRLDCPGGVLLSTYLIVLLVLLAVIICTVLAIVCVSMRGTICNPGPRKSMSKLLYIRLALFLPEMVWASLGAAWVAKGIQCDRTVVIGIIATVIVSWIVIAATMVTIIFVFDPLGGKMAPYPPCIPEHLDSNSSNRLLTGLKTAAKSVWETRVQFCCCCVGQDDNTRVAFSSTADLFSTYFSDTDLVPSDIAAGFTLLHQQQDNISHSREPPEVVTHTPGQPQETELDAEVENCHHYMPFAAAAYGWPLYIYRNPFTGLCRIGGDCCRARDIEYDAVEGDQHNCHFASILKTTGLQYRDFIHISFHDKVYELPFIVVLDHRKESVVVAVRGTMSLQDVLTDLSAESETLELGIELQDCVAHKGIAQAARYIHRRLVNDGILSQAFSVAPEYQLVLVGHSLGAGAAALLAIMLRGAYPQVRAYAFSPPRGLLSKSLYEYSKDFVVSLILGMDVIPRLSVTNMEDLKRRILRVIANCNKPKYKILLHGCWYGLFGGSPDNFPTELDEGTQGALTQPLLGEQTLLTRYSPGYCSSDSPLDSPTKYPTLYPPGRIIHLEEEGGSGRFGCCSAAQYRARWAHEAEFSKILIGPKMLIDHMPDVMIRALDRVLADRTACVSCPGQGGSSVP

## COc1ccccc1-c1ccc(-c2cn(C(=O)N3CCCCC3Cc3ccccc3)nn2)cc1 (stereo unspecified)
Prepl
  SILAC ratio (treated/control probe labeling): 1 (inactive)
Ddhd1
  SILAC ratio (treated/control probe labeling): 0.99 (inactive)
Htra2
  SILAC ratio (treated/control probe labeling): 1.33 (inactive)
Lipe
  SILAC ratio (treated/control probe labeling): 1.12 (inactive)
Parl
  SILAC ratio (treated/control probe labeling): 1.07 (inactive)
[1]
  SILAC ratio (treated/control probe labeling): 0.93 (inactive)
Dpp7
  SILAC ratio (treated/control probe labeling): 1.19 (inactive)
Ctsa
  SILAC ratio (treated/control probe labeling): 1.5 (inactive)
Dpp9
  SILAC ratio (treated/control probe labeling): 0.94 (inactive)
Lonp1
  SILAC ratio (treated/control probe labeling): 1.86 (inactive)
Fam108b
  SILAC ratio (treated/control probe labeling): 1.16 (inactive)
[2]
  SILAC ratio (treated/control probe labeling): 1 (inactive)
[3]
  SILAC ratio (treated/control probe labeling): 0.17
Acot2
  SILAC ratio (treated/control probe labeling): 1.36 (inactive)
[4]
  SILAC ratio (treated/control probe labeling): 1.02 (inactive)
Bat5
  SILAC ratio (treated/control probe labeling): 1.33 (inactive)
Esd
  SILAC ratio (treated/control probe labeling): 1.13 (inactive)
Pnpla7
  SILAC ratio (treated/control probe labeling): 1.43 (inactive)
Plat
  SILAC ratio (treated/control probe labeling): 2.04 (inactive)
D230012E17Rik
  SILAC ratio (treated/control probe labeling): 1.19 (inactive)
Qrsl1
  SILAC ratio (treated/control probe labeling): 1.45 (inactive)
Ppt2
  SILAC ratio (treated/control probe labeling): 1.37 (inactive)
Serhl
  SILAC ratio (treated/control probe labeling): 1.38 (inactive)
Tpp2
  SILAC ratio (treated/control probe labeling): 0.83 (inactive)
Abhd12
  SILAC ratio (treated/control probe labeling): 1.15 (inactive)
Kiaa1363
  SILAC ratio (treated/control probe labeling): 1.32 (inactive)
Pnpla8
  SILAC ratio (treated/control probe labeling): 1.26 (inactive)
Faah
  SILAC ratio (treated/control probe labeling): 1.06 (inactive)
Apeh
  SILAC ratio (treated/control probe labeling): 0.97 (inactive)
Pafah1b3
  SILAC ratio (treated/control probe labeling): 0.99 (inactive)
Fam108c
  SILAC ratio (treated/control probe labeling): 1.2 (inactive)
Fasn
  SILAC ratio (treated/control probe labeling): 1.1 (inactive)
Lypla3
  SILAC ratio (treated/control probe labeling): 0.97 (inactive)
Lyplal1
  SILAC ratio (treated/control probe labeling): 1.47 (inactive)
Ache
  SILAC ratio (treated/control probe labeling): 1.39 (inactive)
Pme1
  SILAC ratio (treated/control probe labeling): 1.08 (inactive)
[5]
  SILAC ratio (treated/control probe labeling): 0.98 (inactive)
Lypla2
  SILAC ratio (treated/control probe labeling): 1.01 (inactive)
Pnpla6
  SILAC ratio (treated/control probe labeling): 1.22 (inactive)
Scpep1
  SILAC ratio (treated/control probe labeling): 1.46 (inactive)
Abhd4
  SILAC ratio (treated/control probe labeling): 0.96 (inactive)
Pafah1b2
  SILAC ratio (treated/control probe labeling): 1.03 (inactive)
Lactb
  SILAC ratio (treated/control probe labeling): 1.17 (inactive)
Abhd11
  SILAC ratio (treated/control probe labeling): 1.41 (inactive)
[6]
  SILAC ratio (treated/control probe labeling): 0.11
Iah1
  SILAC ratio (treated/control probe labeling): 1.06 (inactive)
